From patent publication US12116387B2, “Antimicrobial peptides” (priority 2021, dated 2024)
Where two headings read alike, the source gives them in different places. Ends that are not written are not given here.

Key:
[1] = test system: human red blood cells (hRBCs); assay: Cytotoxicity / hemolysis against human red blood cells; assay type: cell-based
Experimental: Once the mechanisms by which the peptide targeted bacterial cells was elucidawted, the effect of the pentapeptide motif insertion on cytotoxicity against mammalian cells was evaluated.

[2] = test system: murine fibroblasts (L929); assay: Cytotoxicity against L929 fibroblasts (MTT); assay type: cell-based
Experimental: Mammalian cells toxicity assays. L929 mice fibroblasts (Rio de Janeiro Cell Bank) and SPCs were seeded in 96-well microtiter plates in a concentration of 1.0×10^5 cells per well, in DMEM medium, supplemented with different concentrations of tested peptides (1-600 μM). After 48 h incubation, a thiazolyl blue tetrazolium bromide (MTT) protocol was performed. Briefly, 60% of the medium was removed, and 10 μL of MTT (5 mg mL^−1) (Sigma, USA) solution was added to each well and the plate was incubated for 4 h, in 5% CO2, at 37° C. The blue formazan product generated was dissolved by the addition of 100 μL of 100% DMSO (Mallinckrodt, Germany) per well. Plates were then gently swirled for 5 min, at room temperature, to dissolve the precipitate. The absorbance was monitored at 575 nm using a microplate spectrophotometer (Bio-Tek, USA). Cytotoxicity was determined as a percentage of the maximum value after subtracting the background. The results were expressed as the percentage of each sample compared to the negative control (PBS buffer, pH 7.4) and cell culture was incubated in a lysis buffer (10 mM Tris, pH 7.4, 1 mM ethylenediamine tetraacetic acid (EDTA), and 0.1% Triton X-100).

[3] = test system: murine macrophages monocytes (RAW 264.7); assay: Cytotoxicity against RAW 264.7 cells (MTT); assay type: cell-based
mice = test system: mice
Experimental: Therefore, the anti-infective activity of mast-MO was then tested in pre-clinical mouse models. First, the toxicity of a single dose of either mast-L or mast-MO administered peritoneally to mice was assessed in order to determine the range of concentrations to be used in subsequent animal experiments. The hemolytic activity of mast-MO (up to 200 μmoL^−1) against murine red blood cells (Table 6) was also tested prior to conducting animal experiments.
Systemic bacterial infection mouse model. Acute toxicity assay was performed based on the work of Navon-Venezia and co-workers (46). The experiment was performed by intraperitoneal (i.p.) injection of the tested peptides to groups of 10 C57BL/6 mice. Each mouse was injected with a 0.5 mL solution of freshly prepared of peptides in PBS. The doses of peptide administered per mouse were 0, 10, 30, 50, 70 and 90 mg Kg^−1 of body weight. Animals were directly inspected for adverse effects for 6 h, and mortality was monitored for 7 days thereafter. Differences between groups were analysed using the Fisher exact test (differences were considered to be statistically significant when the P value was <0.05). Briefly, E. coli ATCC8739 and E. coli 1812446 or S. aureus ATCC 29213 and S. aureus (MRSA) ATCC33591 were plated on tryptic soy agar plus 5% sheep blood (blood agar, Himedia, India) from a frozen stock. Following 24 h of incubation of the agar plate, three isolated colonies were transferred to 1 mL of BHI. The broth culture was incubated overnight (12-16 h) at 37° C. with shaking. […] Mice were challenged with either strain of E. coli ATCC8739 and E. coli 1812446 or S. aureus ATC29213 and S. aureus (MRSA) ATCC33591 in a final volume of 200 μL of PBS by intraperitoneal injection (i.p.). The day of challenge was designated as day 1 of the experiment. Three hours after bacterial injection, mice (n=5) were treated, intraperitoneally, with different concentrations of peptides (1, 5 or 10 mg Kg^−1), LL-37, gentamicin and 10 mg Kg^−1 of imipenem or PBS for 8 days. For bacterial load evaluation, 5 mice per group were used. Animals were humanely killed 24 h after bacterial administration. To detect bacterial colonization, the peritoneal lavage samples were collected under sterile conditions. The peritoneal lavage was obtained by washing the cavity with 5 mL of sterile PBS. Samples were diluted serially, and 100 μL of each dilution was spread in duplicate on appropriate agar plates for the count of developed colonies. Cytokine levels (i.e., IFN-γ, IL-6, IL−10, IL−12p70 and TNF-α) in the peritoneal lavage of the mice both in the absence and presence of peptide treatment were quantified by ELISA (Peprotech, USA) according to the manufacturer's instructions.

P. aeruginosa = assay: Skin scarification (abscess) infection mouse model; assay type: in vivo; details: single dose 16 μmol L^−1
Description: Despite these therapeutic properties, mast-MO retained some cytotoxicity towards human cells at concentrations immediately above its antimicrobial and immunomodulatory activities hindering its use as a potential therapy in humans. FIG. 6B pertains to design of mast-MO derivatives through permutation of its FLPII motif. FIG. 6C depicts cytotoxic activity of mast-MO and its permutation variants against human embryonic kidney cells (i.e., HEK293). FIG. 6D provides a schematic of the experimental design. Briefly, the back of mice was shaved, and an abrasion was generated to damage the stratum corneum and the upper layer of the epidermis. Subsequently, an aliquot of […] containing 5×10^7 CFU/20 μL of P. aeruginosa in PBS was inoculated over each defined area. One day post-infection, peptides (16 μmol L^−1) were administered to the infected area. […] Six animals per group were euthanized and the area of scarified skin was excised two days post-infection, homogenized using a bead beater for 20 min (25 Hz), and serially diluted for CFU quantification (statistical significance was determined using two-way ANOVA followed by Dunnett's test, ***p<0.001). […]
Skin abscess infection mouse model. […] Animals were euthanized and the area of scarified skin was excised two- and four-days post-infection, homogenized using a bead beater for 20 minutes (25 Hz), and serially diluted for CFU quantification. […]

[4] = test system: human embryonic kidney (HEK293) cells; assay: Cytotoxicity against HEK293 cells; assay type: cell-based
Description: The FLPII motif was chosen for the permutations to preserve the natural antimicrobial activity of mast-L and also conserve the hydrophobic content inserted in the N-terminal extremity for the initial design of mast-MO. Next, we assessed the antimicrobial (FIG. 10) and cytotoxic activities of the mast-MO analog library against HEK293 cells (FIG. 6C). These specific cell line was chosen as it derives from human embryonic kidney cells and potential antimicrobial (i.e., AMPs, antibiotics) toxicity affects the kidneys, which are responsible for clearing such molecules (34). Also measured was whether the peptides aggregated at the highest concentration tested (128 μmoL^−1) (Table 7) since the motif inserted is composed of residues with aliphatic or aromatic side chain groups that may be prone to aggregation when in proximity within the primary peptide sequence, thus altering biological activity. Minor changes to the first five residues inserted in the mast-MO primary sequence led to a pronounced decrease in cytotoxic activity (2.5 to 5-fold) compared to mast-MO (FIG. 6C).

[5] = test system: E. coli and S. aureus strains; assay: Systemic infection experiments, summary over all strains; details: 10 mg Kg^−1
Experimental: To determine the anti-infective activity of mast-MO in a pre-clinical mouse model, the ability of the peptide to kill pathogenic and drug-resistant E. coli and S. aureus strains was tested in a systemic sepsis infection mouse model (FIG. 5). The minimal bacterial load resulting in a lethal dose (LD100) 24 h post-intraperitoneal injection was first determined. […] Mice were infected with the LD100 of bacteria and treated 3 h post-infection with either mast-L (1 and 5 mg Kg^−1) or mast-MO (1, 5 and 10 mg Kg^−1), which were also administered intraperitoneally.
Systemic bacterial infection mouse model. […] The experiment was performed by intraperitoneal (i.p.) injection of the tested peptides to groups of 10 C57BL/6 mice. Each mouse was injected with a 0.5 mL solution of freshly prepared of peptides in PBS. The doses of peptide administered per mouse were 0, 10, 30, 50, 70 and 90 mg Kg^−1 of body weight. Animals were directly inspected for adverse effects for 6 h, and mortality was monitored for 7 days thereafter. Differences between groups were analysed using the Fisher exact test (differences were considered to be statistically significant when the P value was <0.05). Briefly, E. coli ATCC8739 and E. coli 1812446 or S. aureus ATCC 29213 and S. aureus (MRSA) ATCC33591 were plated on tryptic soy agar plus 5% sheep blood (blood agar, Himedia, India) from a frozen stock. Following 24 h of incubation of the agar plate, three isolated colonies were transferred to 1 mL of BHI. The broth culture was incubated overnight (12-16 h) at 37° C. with shaking. […] Mice were challenged with either strain of E. coli ATCC8739 and E. coli 1812446 or S. aureus ATC29213 and S. aureus (MRSA) ATCC33591 in a final volume of 200 μL of PBS by intraperitoneal injection (i.p.). The day of challenge was designated as day 1 of the experiment. Three hours after bacterial injection, mice (n=5) were treated, intraperitoneally, with different concentrations of peptides (1, 5 or 10 mg Kg^−1), LL-37, gentamicin and 10 mg Kg^−1 of imipenem or PBS for 8 days. For bacterial load evaluation, 5 mice per group were used. […]

[6] = test system: mouse red blood cells (mRBCs); assay: Hemolysis of mouse red blood cells; assay type: cell-based; details: 0.5 to 200 μmol L^−1
Experimental: Hemolysis assays. Hemolytic activity of peptides was determined by using fresh mouse red blood cells (mRBCs), by measuring the peptide-induced changes of the optical density (OD) at 540 nm (Victor X, Perkin-Elmer, Germany), 100% lysis was determined by analysing the supernatant of erythrocytes that had been incubated with Triton X-100 (1%).

[7] = Dose 90 mg Kg^−1, five mice per group
[8] = RAW 264.7, 24 h, 0.5 to 200 μmol L^−1, MTT (Table 6)

C[C@@H](O)[C@H]1C(=O)N2C(C(=O)O)=C(SCCN=CN)C[C@H]12 [Imipenem, imipenem]
Cytotoxic activity, Peptide Concentration ([1]; human): >400 µmol/L | Cytotoxic activity, Peptide Concentration ([2]; mouse): >400 µmol/L | Cytotoxic activity, Peptide Concentration ([3]; mouse): >400 µmol/L | Gross toxicity, number of mice (TL) (mice; Dose 50 mg Kg^−1, five mice per group): 2 (TL-1) | Gross toxicity, number of mice (TL) (mice; [7]): 3 (TL-2)

gentamicin
Cytotoxic activity, Peptide Concentration ([1]; hRBCs): >400 µmol/L | Cytotoxic activity, Peptide Concentration ([2]; L929): >400 µmol/L | Cytotoxic activity, Peptide Concentration ([3]; RAW 264.7 (Table 2)): >400 µmol/L

CC[C@H](C)[C@H](NC(=O)[C@H](CCCCN)NC(=O)[C@H](CCCCN)NC(=O)[C@H](C)NC(=O)[C@H](CC(C)C)NC(=O)[C@H](C)NC(=O)[C@H](C)NC(=O)[C@H](CC(C)C)NC(=O)[C@H](C)NC(=O)[C@H](CCCCN)NC(=O)[C@H](CC(C)C)NC(=O)[C@H](CC(N)=O)NC(=O)[C@@H](NC(=O)[C@H](CC(C)C)NC(=O)[C@@H](NC(=O)[C@@H](NC(=O)[C@@H]1CCCN1C(=O)[C@@H](N)Cc1ccccc1)[C@@H](C)CC)[C@@H](C)CC)[C@@H](C)CC)C(=O)N[C@@H](CC(C)C)C(N)=O [Analog 49, FPIILINLKALAALAKKIL]
Side effects or adverse toxicity (P. aeruginosa): did not cause any side effects or adverse toxicity

CC[C@H](C)[C@H](NC(=O)[C@H](CCCCN)NC(=O)[C@H](CCCCN)NC(=O)[C@H](C)NC(=O)[C@H](CC(C)C)NC(=O)[C@H](C)NC(=O)[C@H](C)NC(=O)[C@H](CC(C)C)NC(=O)[C@H](C)NC(=O)[C@H](CCCCN)NC(=O)[C@H](CC(C)C)NC(=O)[C@H](CC(N)=O)NC(=O)[C@@H](NC(=O)[C@@H](NC(=O)[C@@H](NC(=O)[C@@H]1CCCN1C(=O)[C@H](CC(C)C)NC(=O)[C@@H](N)Cc1ccccc1)[C@@H](C)CC)[C@@H](C)CC)[C@@H](C)CC)C(=O)N[C@@H](CC(C)C)C(N)=O [Mast-MO, FLPIIINLKALAALAKKIL]
Hemolytic activity in human red blood cell assays ([1]; concentration range tested 1-400 μmoL^−1): did not present hemolytic activity | Cytotoxic activity, Peptide Concentration ([1]; hRBCs): >400 µmol/L | Concentration toxic against HEK293 [4]: 25 µmol⁻¹ | Cytotoxic activity, Peptide Concentration ([4]; HEK293): 25 µmol/L | Cytotoxicity towards murine fibroblasts (L929 cells), in words [2]: not cytotoxic | Cytotoxic activity, Peptide Concentration ([2]; L929): >400 µmol/L | Cytotoxicity towards murine macrophages (RAW 264.7 cells), in words [3]: not cytotoxic | Cytotoxic activity, Peptide Concentration ([3]; RAW 264.7 (Table 2)): >400 µmol/L | Gross toxicity, number of mice (TL) (mice; [7]): 2 (TL-1) | Toxicity in preliminary mouse experiments, in words (mice; single dose, peritoneally): lacked toxicity | Toxicity when injected systemically in the infection model [5]: did not present toxicity

FLPII [FLPII motif, FLPII]
Cytotoxic activity, Peptide Concentration [3, 8]: >200 µmol/L | Hemolytic activity, Peptide Concentration [6]: >200 µmol/L

LL-37: human cathelicidin LL-37, used for comparison
Cytotoxic activity, Peptide Concentration ([1]; hRBCs): 87 µmol/L | Cytotoxic activity, Peptide Concentration ([2]; L929): 95 µmol/L | Cytotoxic activity, Peptide Concentration ([3]; RAW 264.7 (Table 2)): 100 µmol/L | Cytotoxic activity, Peptide Concentration [3, 8]: 100 µmol/L | Hemolytic activity, Peptide Concentration [6]: 100 µmol/L

CC[C@H](C)[C@H](N)C(=O)N[C@@H](Cc1ccccc1)C(=O)N[C@@H](CC(C)C)C(=O)N1CCC[C@H]1C(=O)N[C@H](C(=O)N[C@H](C(=O)N[C@@H](CC(N)=O)C(=O)N[C@@H](CC(C)C)C(=O)N[C@@H](CCCCN)C(=O)N[C@@H](C)C(=O)N[C@@H](CC(C)C)C(=O)N[C@@H](C)C(=O)N[C@@H](C)C(=O)N[C@@H](CC(C)C)C(=O)N[C@@H](C)C(=O)N[C@@H](CCCCN)C(=O)N[C@@H](CCCCN)C(=O)N[C@H](C(=O)N[C@@H](CC(C)C)C(N)=O)[C@@H](C)CC)[C@@H](C)CC)[C@@H](C)CC [Analog 15, IFLPIINLKALAALAKKIL]
Side effects or adverse toxicity (P. aeruginosa): did not cause any side effects or adverse toxicity
